{"source": "patent US20170071944A1", "about": "“MODULATORS OF TOLL-LIKE RECEPTORS FOR THE TREATMENT OF HIV” (Gilead Sciences, Inc., priority 2015, published 2017)", "format_in_all_cases": "cell-based, human", "key": {"[1]": {"test_system": "HIV-infected CD4 T cells", "test": "PGT121 antibody-mediated killing of HIV-infected CD4 T cells, monocyte effector model", "conditions": "monocytes from 1 subject, 11 or 33 nM, 1 day", "text": "(§1) NK cells and monocytes mediate antibody-dependent cellular cytotoxicity (ADCC) and antibody-dependent cellular phagocytosis (ADCP) respectively. To assess the ability of the compound of Example 15 to enhance ADCC and ADCP, two models were developed using monocytes or PBMCs as effector cells and HIV-infected CD4 T cells as target cells. PBMCs were isolated from 3 healthy subjects' leukaphereses (AllCells, participant IDs A4593, A4596, A4606), as described above. CD4 T cells were isolated from PBMCs using negative selection magnetic beads (EasySep, StemCell Technologies). CD4 T cells were spinfected with HIV-1 isolate 92HT593 (NIH AIDS Reagent Program) and cultured for 5 days at 37° C. For the PBMC model, autologous PBMCs were cultured for 5 days with vehicle control (DMSO) or Example 15 at 100 or 1000 nM. […] Marker staining was measured by flow cytometry using a LSR Fortessa (BD Biosciences) and analyzed with FlowJo software (TreeStar). The percent killing was determined by calculating the reduction of p24+ CD4+ T cells mediated by PGT121 antibody relative to a no antibody control.\n(§2) PBMCs (FIG. 3) or monocytes (FIG. 4) were treated with DMSO or TLR8 agonist for 5 days (FIG. 3) or 1 day (FIG. 4) and then co-cultured for 1 day with autologous HIV-infected CD4 T cells−/+anti-HIV Env antibody PGT121. Reductions in % p24+ CD4+ T cells, relative to no antibody control, were measured by FACS. […]"}, "[2]": {"test_system": "HIV-1 expression in PBMC cultures from HIV-1 infected subjects on cART", "test": "Induced HIV-1 expression in PBMC cultures from HIV-1 infected subjects on cART (HIV-1 RNA in culture supernatant, COBAS TaqMan)", "conditions": "for Fold HIV-1 Activation, Geometric Mean with ≧2-Fold-Activation / Fold HIV-1 Activation, Range with ≧2-Fold-Activation: N = 12 subjects", "procedure": "In some experiments, IL-15, the TLR8 modulating compound of Example 15 or the combination of IL-15 and Example 15 were used at the indicated concentrations (Table 4). The cultures were maintained in the presence of antivirals (elvitegravir and efavirenz at 100 nM each) to prevent viral spread and amplification in order to measure the quantity of virus produced (latency reversal) by the TLR8 modulating compounds. At the end of the incubation period, cell-free culture supernatants were harvested and HIV-1 RNA levels were quantified by the COBAS® AmpliPrep/COBAS®TaqMan HIV-1 Test, v2.0 (Roche).\nIn each table, fold-activation is calculated as a ratio of HIV-1 RNA copies per ml of cell culture supernatants from TLR8 agonist treated samples and DMSO treated controls. Geometric mean fold-activation from three independent incubation samples for each condition of each subject's PBMCs.\nTo assess if the latency reversal induced by TLR8 agonism could further potentiate latency reversal by a separate mechanisms, we treated cells as described above with IL-15, Example 15, or a combination of IL-15 and Example 15 (Table 4)."}, "[3]": {"test_system": "HIV-infected CD4 T cells", "test": "PGT121 antibody-mediated killing of HIV-infected CD4 T cells, PBMC effector model", "text": "as §1, §2"}, "[4]": {"conditions": "Example 15 1000 nM and/or IL-15 1 nM, subjects 205-210"}}, "note": "Where “and” joins values, the source holds several entries; their conditions need not be identical. Equal entries are not always repeated."}
{"smiles": "CCCC[C@H](CO)Nc1nc(N)nc2cccnc12", "note": "[Example 15]", "values": [{"measurement": "PGT121-mediated killing of HIV-infected CD4+ T cells compared to the DMSO control", "setting": "[1]", "value": "markedly enhanced"}, {"measurement": "Fold HIV-1 Activation, Geometric Mean with ≧2-Fold-Activation", "setting": "[2]; 10 nM", "value": 4.6, "unit": "fold"}, {"measurement": "Fold HIV-1 Activation, Range with ≧2-Fold-Activation", "setting": "[2]; 10 nM", "value": "2.2-20.1 fold"}, {"measurement": "N with ≧2-Fold-Activation (%)", "setting": "[2]; 10 nM, subjects 172-183", "value": "(42) %"}, {"measurement": "Fold HIV-1 Activation, Geometric Mean with ≧2-Fold-Activation", "setting": "[2]; 100 nM", "value": 4.8, "unit": "fold"}, {"measurement": "Fold HIV-1 Activation, Range with ≧2-Fold-Activation", "setting": "[2]; 100 nM", "value": "2.2-10.1 fold"}, {"measurement": "N with ≧2-Fold-Activation (%)", "setting": "[2]; 100 nM, subjects 172-183", "value": "(33) %"}, {"measurement": "Fold HIV-1 Activation, Geometric Mean with ≧2-Fold-Activation", "setting": "[2]; 1,000 nM", "value": 3.4, "unit": "fold"}, {"measurement": "Fold HIV-1 Activation, Range with ≧2-Fold-Activation", "setting": "[2]; 1,000 nM", "value": "2.4-5.7 fold"}, {"measurement": "N with ≧2-Fold-Activation (%)", "setting": "[2]; 1,000 nM, subjects 172-183", "value": "(58) %"}, {"measurement": "Fold HIV-1 Activation, Geometric Mean with ≧2-Fold-Activation", "setting": "[2]; 10, 100, or 1000 nM", "value": 4.4, "unit": "fold"}, {"measurement": "Fold HIV-1 Activation, Range with ≧2-Fold-Activation", "setting": "[2]; 10, 100, or 1000 nM", "value": "2.2-20.1 fold"}, {"measurement": "Fold HIV-1 Activation", "setting": "[2]; Example 15 10 nM, 4 days, individual subjects 172-183, vs DMSO", "value": "2.6 fold and 2.2 fold and 4.7 fold and 1.2 fold and 1.9 fold and 1.3 fold and 0.3 fold and 0.5 fold and 1.0 fold and 4.1 fold and 20.1 fold and 0.8 fold"}, {"measurement": "Fold HIV-1 Activation", "setting": "[2]; Example 15 100 nM, 4 days, individual subjects 172-183, vs DMSO", "value": "3.8 fold and 6.6 fold and 2.2 fold and 1.5 fold and 1.0 fold and 0.5 fold and 0.2 fold and 0.1 fold and 0.7 fold and 1.8 fold and 10.1 fold and 1.3 fold"}, {"measurement": "Fold HIV-1 Activation, Geometric Mean", "setting": "[2]; Example 15 1000 nM and/or IL-15 1 nM, N = 6 subjects", "value": 2.1, "unit": "fold"}, {"measurement": "Fold HIV-1 Activation", "setting": "[2]; Example 15 1000 nM and/or IL-15 1 nM, individual subjects 205-210, vs DMSO", "value": "4.7 fold and 0.8 fold and 9.7 fold and 2.0 fold and 1.9 fold and 0.6 fold"}, {"measurement": "N with ≧2-Fold-Activation", "setting": "[2]; [4]", "value": "3 of 6"}, {"measurement": "N with ≧2-Fold-Activation (%)", "setting": "[2]; [4]", "value": 50, "unit": "%"}, {"measurement": "Fold HIV-1 Activation", "setting": "[2]; Example 15 1,000 nM, 4 days, individual subjects 172-183, vs DMSO", "value": "2.7 fold and 2.4 fold and 3.3 fold and 1.2 fold and 4.7 fold and 0.3 fold (2×) and 3.4 fold and 3.0 fold and 1.3 fold and 1.6 fold and 5.7 fold"}, {"measurement": "PGT121-mediated killing of HIV-infected CD4+ T cells, geometric mean area under the curve (AUC)", "setting": "[3]; PBMCs from 3 subjects pre-treated 5 days at 100 nM, 108 for the DMSO control", "value": 172}, {"measurement": "Increase of AUC of PGT121-mediated killing compared to DMSO control", "setting": "[3]; PBMCs from 3 subjects, 100 nM", "value": 60, "unit": "%"}]}
